According to publication PMC5460016, “Inhibition of gelatinase B/MMP-9 does not attenuate colitis in murine models of inflammatory bowel disease” (Nature Communications, 2017):

Columns and labels:
[1] = competitive ELISA, plasma of DSS-treated mice, all three administration schemes
Protocol: To ensure that therapeutic levels of peptide inhibitors A and B were attained during all three administration schemes, plasma levels were measured with competitive ELISAs as described previously.
Supplementary figure 8: Levels of peptide inhibitors A and B in plasma of DSS-treated mice at time of sacrifice. (a) Plasma levels of peptide inhibitor A measured with ELISA in DSS-treated mice that received either peptide inhibitor A (n=19) or saline (n=9) injections for all three different administration schemes (therapeutic, prophylactic and continuous).
(b) Similar ELISA analyses […]
were performed for detection of peptide inhibitor B in plasma of DSS-treated mice (n=19). This […]
similar as in Figures 9 and 10. Box plots are shown with 5-95 percentiles.
(1 picture or pasted object on this page, not shown here)

[2] = system: Mmp3, Mmp8, Mmp9 mRNA in colonic mouse tissue; assay: Colonic mRNA expression of Mmps (quantitative RT-PCR) after peptide inhibitor administration; assay type: in vivo; details: DSS mice
From the text: Figure 10 Relative mRNA expression of specific Mmps and Tace after administration of peptide MMP inhibitors. Relative mRNA expression measured in colonic mouse tissue after a therapeutic injection scheme (n=16) (a), a prophylactic injection scheme (n=23) (b) and continuous osmotic pump delivery (n=22) (c) of peptide inhibitors A and B. Expression levels were normalized to the control condition (water+saline) and 18S with the use of the 2-delta delta CT method. Mean values with s.e.m. are shown. Statistical analyses were performed with Mann–Whitney U tests (*P<0.05, **P≤0.01; NS, not significant). Colour codes are similar as in Figs 8 and 9.
Snap-frozen mouse colonic fragments were mechanically homogenized with the use of Precellys 24 homogenizer (VWR, Leuven, Belgium). Total RNA was extracted according to the manufacturer's guidelines (RNeasy Mini kit, Qiagen, Hilden, Germany, #74104) and quantified with the use of a Nanodrop ND-1000 Spectrophotometer (Isogen Life Science, Temse, Belgium). cDNA was synthesized with the use of High-Capacity cDNA Reverse Transcription Kit (Applied Biosystems, Foster City, CA, USA). Mmp3, Mmp8, Mmp9 and Tace mRNA levels were analysed in duplicate on 25 ng cDNA by quantitative RT-PCR with the use of TaqMan Universal PCR Master Mix from Applied Biosystems and primer and probe sets from Integrated DNA Technologies (Leuven, Belgium; Supplementary Table 3). Data were normalized to 18S ribosomal RNA levels.

[3] = system: MMP-3; details: Supplementary table 2, no method in this paper, known effects, cited from earlier work
From the text: (§1) page 11: Supplementary table 2: IC50 values of peptide inhibitors A and B towards MMP -3, -8, -9 and TACE (μM). Name Peptide sequences† MMP-3 MMP-8 MMP-9 TACE Peptide inhibitor […] No inhibition 17.6 12.5 7.0 (CPU 1) Peptide inhibitor […] 7.0 0.036 0.16 15 (CPU 2) † Peptide sequences are in one-letter codes for amino acids. Pyr stands for pyridylalanine. Supplementary table 3: Primer sequences used for qRT-PCR analyses. Gene Forward primer Reverse primer Probe Mmp3 [NT] Mmp8 ...

[4] = system: MMP-8; details: Supplementary table 2; no method in this paper; known effects; read-out: IC50 towards MMP-8; cited from earlier work
From the text: as §1

[5] = system: MMP-9; details: Supplementary table 2; no method in this paper; known effects; read-out: IC50 towards MMP-9; cited from earlier work
From the text: as §1

[6] = system: TACE; details: Supplementary table 2; no method in this paper; known effects; read-out: IC50 towards TACE; cited from earlier work
From the text: as §1

[7] = system: C57BL/6J mice with acute DSS-induced colitis; assay: Treatment of acute DSS-induced colitis with peptide inhibitors; details: for severity of intestinal inflammation by histopathological analysis (histological inflammation and activity scores): all three administration schemes (therapeutic, prophylactic, osmotic pump); for body weight loss at time of killing: Mann-Whitney U
From the text: Acute and chronic dextran sodium sulphate (DSS) colitis were induced as described previously[13][39]. Acute colitis was induced in 8–10 weeks old male and female mice by oral administration of 2–3% DSS (35–50 kDa; MP Biomedicals, Illkirch, France) in the drinking water during 7 days followed by 2–3 days on normal drinking water. All mice were killed at day 9 (Fig. 1a). […] Control mice (WT and MMP-9^−/−) received normal drinking water throughout the duration of the experiment. The body weight of the mice was monitored daily or every other day in case of the acute model, whereas in the chronic model, body weight was followed every 3–4 days. Of importance, WT and MMP-9^−/− mice were co-housed (maximally 5 mice per cage) during the experiments ensuring identical environmental conditions as well as controlling for cage-related effects (for example, coprophagia and intake of food and (DSS-supplemented) drinking water). Both the acute and chronic DSS experiments were repeated three times whereby results could be replicated each time and in total 79 mice were used in the acute models and 35 mice in the chronic models. The number of mice needed was estimated based on previous experience[13] and included at least 5 mice per group to ensure adequate power of detection. […] These mice were excluded from further analyses. […] No randomization was applied before start of the experiments.
Animals were euthanized with sodium pentobarbital (Nembutal, Ovation Pharmaceuticals Inc. Deerfield, USA). The DAI was calculated based on three parameters: loss of body weight (one point for each 5% loss of body weight), consistency of stools (normal=0, soft=2, liquid=4) and presence of gross blood in stools (0=none, 1=present)[13][39]. The colon was isolated, weighted and its length measured from the ileocecal junction to the anus. […] The macroscopic damage score was calculated based on extent of inflammation along the colon (in cm, multiplied by 2 if severe), colonic mesenterial adhesion (0=none, 1=mild, 2=severe) and colonic hyperaemia (0=none and 1=present)[13][39].
Acute colitis was induced in male and female mice via administration of 2% DSS in the drinking water for 7 days followed by 2–4 days on normal drinking water.

[8] = continuous osmotic pump delivery, DSS mice, versus saline
[9] = prophylactic scheme: daily i.p. 250 μg from day 1, 2% DSS mice, versus saline
[10] = therapeutic or prophylactic schemes (daily i.p. 250 μg), DSS mice
[11] = therapeutic scheme: daily i.p. 250 μg from day 6, 2% DSS mice, versus saline

Substance | plasma levels of peptide inhibitor at time of sacrifice [1] | IC50 [4] [µM] | IC50 [5] [µM] | IC50 [6] [µM] | severity of intestinal inflammation by histopathological analysis (histological inflammation and activity scores) ([7]; DSS mice) | other colonic measurements (colon weight, colon/body weight ratio and colon weight/length ratio) [7, 8] | body weight loss [7, 9] | disease activity index (DAI) [7, 9] | macroscopic damage score [7, 10] | disease activity index (DAI) [7, 11] | body weight loss at time of killing [7, 11] | other results
IVRRADRAAVP-GGGG-P(Pyr)CBRGE [Peptide inhibitor B] | inhibitory plasma levels were indeed reached | 0.036 | 0.16 | 15 | did not observe a significant effect | not significantly different | no differences were observed | not significantly different | not altered | higher | significantly more body weight loss | colonic Mmp8 and Mmp3 mRNA expression ([2]; continuous osmotic pump delivery, compared to saline): significantly higher; colonic Mmp9 mRNA expression ([2]; continuous osmotic pump delivery, compared with peptide inhibitor A or saline): significantly increased; colonic expression of Mmp9 mRNA ([2]; prophylactic scheme, compared to saline, qRT-PCR normalized to 18S): significantly increased expression of Mmp9; colonic expression of Mmp3, Mmp8 and Mmp9 mRNA ([2]; therapeutic scheme, compared to peptide inhibitor A or saline, qRT-PCR normalized to 18S): appeared to be higher; IC50 ([3]; read-out: IC50 towards MMP-3): 7 µM
P(Pyr)CBRGE-GGGG-IVRRADRAAVP [Peptide inhibitor A] | inhibitory plasma levels were indeed reached | 17.6 | 12.5 | 7 | did not observe a significant effect | not significantly different | no differences were observed | not significantly different | not altered | no difference was observed | no difference in body weight loss | IC50 towards MMP-3 [3]: No inhibition; colon length ([7]; continuous osmotic pump delivery, DSS mice, versus peptide inhibitor B or saline): significantly longer; macroscopic damage score [7, 8]: lower macroscopic damage score; body weight loss ([7]; continuous s.c. osmotic pump delivery, 30 mg kg−1 per day, DSS mice, versus peptide inhibitor B and saline): mild protection with lower loss of body weight; disease activity index (DAI) ([7]; continuous s.c. osmotic pump delivery, 30 mg kg−1 per day, DSS mice, versus peptide inhibitor B or saline): significantly lower DAI
